In patent US12528837B2, “Aryl substituted polymyxin derivatives” (priority 2018, dated 2026):
In brackets after ≈: the same amount, converted by molar mass. Where two headings read alike, the source gives them in different places. Marks after values point to notes of the source that are not given here. *1 amine or outer side, *2 acyl side, *3 side chain or, on linkers, in order; H or OH if unused. Where a SMILES comes first, the peptide text is derived from it. Bridges are numbered along the chain shown (N, C = ends). [ ]: non-standard residue; d: D form. The star is where a group is joined. GABA(3R-Bn) = O=C(C[C@H](CN[*:1])Cc1ccccc1)[*:2]; X17 = CC(C)C[C@@H]1CNC[C@@H](C(=O)*)C1; X1 = NC[C@@H](CC(=O)*)c1cccc(Cl)c1; Dab = NCC[C@H](N)C(=O)O; Dap = NC[C@H](N)C(=O)O

How the values were obtained:
[1] = Renal toxicity in mice, 17.2 mg/kg sc three times per day, urinary biomarkers; type: in vivo, mouse
Procedure: Starting immediately after the first dose on day 4, mice were transferred to individual metabolic cages and urine was collected over the following 24 hours for determination of biomarker levels (albumin, cystatin C, KIM-1).
PMB values show the range from 4 experiments and colistin from 2 experiments.
Elevation of albumin, cystatin C or KIM-1 in the urine are signs of renal damage.

[2] = Kidney drug level after subcutaneous dose in mouse; type: in vivo; details: for Drug Level in Kidney 4 h / Drug Level in Kidney 16 h: sc, 17.2 mg/kg; for 4 hr kidney level/rel. cytotoxicity: ratio of 4 h kidney level to HK-2 IC50 relative to PMB
Procedure, shortened: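 Mice were euthanised four hours after subcutaneous dosing. Both kidneys were trimmed, weighed, snap-frozen, then homogenised with zirconium oxide beads. After centrifugation (13,000 rpm, 6 °C, 10 min), supernatants were analysed by LC-MS-MS.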

[3] = Renal toxicity in Cynomolgus monkey, iv infusion 7 days; type: in vivo; details: Cynomolgus monkey (n=3), 20 mg/kg/dose, 3 times per day, 7 days
Procedure: In a separate experiment male monkeys (n=3) were dosed with PMB for the same period at 4 mg/kg/dose. In both experiments control animals were dosed 3 times per day with saline.
At the end of the 7 day period blood was sampled and the serum levels of blood urea nitrogen and creatinine determined as indicators of renal damage.
Kidneys were harvested at the end of the 7 day dosing period and examined microscopically.

HK-2 cells = assay: In vitro renal cell toxicity assay (HK-2); type: cell-based
Procedure, shortened: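 HK-2 cells seeded 7,500/well, adhered overnight, then exposed to compound for 24 h at 37° C, 5% CO2, with 5% water and 0.5% DMSO. Background-subtracted, vehicle-normalised dose-response fitted with bottom fixed at zero; IC50 reported relative to PMB in the same run, median where repeated.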

A. baumannii NCTC 13424 = type: cell-based; details: NCTC 13424
Procedure: (§1) The inoculum was prepared by making a direct suspension of isolated colonies (selected from an 18-24 hour Mueller-Hinton agar plate) adjusted to the 0.5 McFarland standard. […] The assays were performed in duplicate. […] The MIC values are quoted in μg/mL.

P. aeruginosa ATCC 27853 [4] = type: cell-based; details: ATCC 27853
Procedure: as §1

[5] = tested on: K. pneumoniae IHMA 520329 (SHV-12, KPC-2); type: cell-based; details: IHMA 520329 (SHV-12, KPC-2)
Procedure: (§2) MIC values (μg/mL) were determined by broth microdilution under CLSI conditions.

[6] = tested on: A. baumannii IHMA 851735 (OXA-23); type: cell-based; details: IHMA 851735 (OXA-23)
Procedure: as §2

P. aeruginosa ATCC 27853 [7] = type: cell-based; details: ATCC 27853; remark: listed apart in the source
Procedure: as §2

[8] = tested on: P. aeruginosa IHMA 644636; type: cell-based; details: IHMA 644636
Procedure: as §2

E. coli IHMA 940398 = type: cell-based; details: IHMA 940398
Procedure: as §2

A. baumannii IHMA 517303 = type: cell-based; details: IHMA 517303
Procedure: as §2

[9] = tested on: P. aeruginosa IHMA 517175; type: cell-based; details: IHMA 517175
Procedure: as §2

[10] = tested on: K. pneumoniae IHMA 580884; type: cell-based; details: IHMA 580884
Procedure: as §2

[11] = tested on: A. baumannii NCTC 13301 (OXA-23); type: cell-based; details: NCTC 13301
Procedure: as §2

E. coli CDF-1 (MCR-1) = type: cell-based; details: CDF-1 (MCR-1)
Procedure: as §2

P. aeruginosa CCUG 59347 = type: cell-based
Procedure, shortened: (§3)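 First, isolated colonies from an 18-24 hour Mueller-Hinton plate were suspended and standardised to 0.5 McFarland. Testing was then carried out in duplicate. For repeatedly tested compounds the reported MIC, expressed in μg/mL, is the median result.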

K. pneumoniae CA64 = type: cell-based
Procedure, shortened: as §3

E. coli CA58 = type: cell-based
Procedure, shortened: as §3

[12] = Renal toxicity in mice, 25 mg/kg sc four doses at 8 hr intervals, biomarkers and histopathology; type: in vivo, mouse; details: sc 25 mg free base/kg; for Kidney histopathology: signs of degeneration or regeneration: mice (n=6)
Procedure: After the fourth dose animals were transferred into individual metabolic cages and urine collected for 24 hours for determination of urinary biomarkers. After collecting urine mice were euthanised and the kidneys harvested for histopathology.

K. pneumoniae ATCC 13822 = type: cell-based; details: cation-adjusted Mueller-Hinton Broth, 18-20 h, 35° C.
Procedure: as §1

[13] = tested on: A. baumannii ATCC BAA-747; type: cell-based; details: cation-adjusted Mueller-Hinton Broth, 18-20 h, 35° C.
Procedure: as §1

E. coli ATCC 25922 = type: cell-based; details: cation-adjusted Mueller-Hinton Broth, 18-20 h, 35° C.
Procedure: as §1

[14] = Renal toxicity grading by urinary biomarkers (Table A); type: in vivo, mouse; parameters: key: −: indistinguishable to vehicle control; ++++: strong response from all biomarkers; details: 4 doses 8 h apart at 25 mg free base/kg/dose or 4 days at 17.2 mg free base/kg/dose; urine 16-24 h
[15] = cation-adjusted Mueller-Hinton Broth, 18-20 h, 35° C.
[16] = mice, sc three times per day 17.2 mg free base/kg, urine 24 h from day 4, geometric mean

CC(C)C[C@@H]1NC(=O)[C@@H](Cc2ccccc2)NC(=O)[C@H](CCN)NC(=O)[C@@H](NC(=O)[C@H](CN)NC(=O)[C@@H](NC(=O)C[C@H](CN)c2cccc(Cl)c2)[C@@H](C)O)CCNC(=O)[C@H]([C@@H](C)O)NC(=O)[C@H](CCN)NC(=O)[C@H](CCN)NC1=O [Example 5, (S)-4-amino-3-(3- chlorophenyl)butanoyl- Thr-Dap-Cyclo[Dab- Dab-DPhe-Leu-Dab- Dab-Thr]] (X1-T[Dap][Dab][Dab][dF]L[Dab][Dab]T; lactam 3-C)
Urinary biomarkers of renal toxicity, comparison (in words) ([1]; albumin, cystatin C, KIM-1, mice 17.2 mg free base/kg three times per day): lowest levels of all 3 biomarkers | Drug Level in Kidney (μg/g kidney, 4 h) ([2]; mouse, 17.2 mg/kg sc, 4 h): 170 μg/g kidney | Drug Level in Kidney 4 h ([2]; mouse, in vivo): 170 µg/g kidney | Drug Level in Kidney 16 h ([2]; mouse, in vivo): 19 µg/g kidney | 4 hr kidney level/rel. cytotoxicity [2]: 15 | Kidney microscopy: tubular degeneration [3]: 1 showed mild tubular degeneration and 2 showed minimal degeneration | HK-2 rel to PMB (HK-2 cells): 11.6 | MIC A. baumannii NCTC 13424 (A. baumannii NCTC 13424): 0.06 µg/mL (≈ 0.0524 µM) | MIC P. aeruginosa ATCC 27853 (P. aeruginosa ATCC 27853 [4]): 0.25 µg/mL (≈ 0.218 µM) | MIC K. pneumoniae IHMA 520329 [5]: >64 µg/mL | MIC A. baumannii IHMA 851735 [6]: 0.25 µg/mL (≈ 0.218 µM) | MIC P. aeruginosa ATCC 27853 (P. aeruginosa ATCC 27853 [7]): 0.25 µg/mL (≈ 0.218 µM) | MIC P. aeruginosa IHMA 644636 [8]: 32 µg/mL (≈ 28 µM) | MIC E. coli IHMA 940398 (E. coli IHMA 940398): 32 µg/mL (≈ 28 µM) | MIC A. baumannii IHMA 517303 (A. baumannii IHMA 517303): >64 µg/mL | MIC P. aeruginosa IHMA 517175 [9]: 8 µg/mL (≈ 6.99 µM) | MIC K. pneumoniae IHMA 580884 [10]: 16 µg/mL (≈ 14 µM) | MIC A. baumannii NCTC 13301 [11]: 0.06 µg/mL (≈ 0.0524 µM) | MIC E. coli CDF-1 (E. coli CDF-1 (MCR-1)): 8 µg/mL (≈ 6.99 µM) | MIC P. aeruginosa CCUG 59347 (P. aeruginosa CCUG 59347; CCUG 59347): 0.25 µg/mL (≈ 0.218 µM) | MIC K. pneumoniae CA64 (K. pneumoniae CA64; CA64): 16 µg/mL (≈ 14 µM) | MIC E. coli CA58 (E. coli CA58; CA58): 8 µg/mL (≈ 6.99 µM) | Kidney histopathology: signs of degeneration or regeneration [12]: None of the animals

CC(C)C[C@@H]1NC(=O)[C@@H](Cc2ccccc2)NC(=O)[C@H](CCN)NC(=O)[C@@H](NC(=O)[C@H](CN)NC(=O)[C@@H](NC(=O)C[C@H](CN)Cc2ccccc2)[C@@H](C)O)CCNC(=O)[C@H]([C@@H](C)O)NC(=O)[C@H](CCN)NC(=O)[C@H](CCN)NC1=O [Example 9, (R)-4-amino-3- benzylbutanoyl-Thr- Dap-Cyclo[Dab-Dab- DPhe-Leu-Dab-Dab- Thr). Isomer 1] ({GABA(3R-Bn)}-T[Dap][Dab][Dab][dF]L[Dab][Dab]T; lactam 3-C)
Drug Level in Kidney (μg/g kidney, 4 h) ([2]; mouse, 17.2 mg/kg sc, 4 h): 159 μg/g kidney | Drug level in kidney ([2]; mouse, 17.2 mg/kg sc, 4 hours): 159 µg/g | tissue level at time at 4 h ([2]; mouse, in vivo, mice, 17.2 mg/kg free base sc, 4 h, read-out: 4 hr kidney level): 159000 ng/g | 4 hr kidney level/rel. cytotoxicity [2]: 13 | HK-2 rel to PMB (HK-2 cells; IC50 relative to PMB in the same experiment, 24 h): 12.0 | MIC K. pneumoniae ATCC 13822 (K. pneumoniae ATCC 13822): 0.25 µg/mL (≈ 0.222 µM) | MIC A. baumannii ATCC BAA-747 [13]: 0.25 µg/mL (≈ 0.222 µM) | MIC E. coli ATCC 25922 (E. coli ATCC 25922): 0.25 µg/mL (≈ 0.222 µM) | MIC P. aeruginosa CCUG 59347 (P. aeruginosa CCUG 59347; [15]): 0.5 µg/mL (≈ 0.445 µM) | MIC K. pneumoniae CA64 (K. pneumoniae CA64; [15]): 64 µg/mL (≈ 56.9 µM) | MIC E. coli CA58 (E. coli CA58; [15]): 8 µg/mL (≈ 7.12 µM) | Kidney histopathology: signs of degeneration or regeneration [12]: None of the animals | Albumin, urine ([12]; mice, urine 24 h): 749 μg/24 h | Cystatin C, urine ([12]; mice, urine 24 h): 754 ng/24 h | KIM-1, urine ([12]; mice, urine 24 h): 2 ng/24 h

CC(C)C[C@@H]1CNC[C@@H](C(=O)N[C@H](C(=O)N[C@@H](CN)C(=O)N[C@H]2CCNC(=O)[C@H]([C@@H](C)O)NC(=O)[C@H](CCN)NC(=O)[C@H](CCN)NC(=O)[C@H](CC(C)C)NC(=O)[C@@H](CC(C)C)NC(=O)[C@H](CCN)NC2=O)[C@@H](C)O)C1 [Reference Example D77, reference compound] (X17-T[Dap][Dab][Dab][dL]L[Dab][Dab]T; lactam 3-C)
Drug Level in Kidney 4 h ([2]; mouse, in vivo): 516 µg/g kidney | Drug Level in Kidney 16 h ([2]; mouse, in vivo): 264 µg/g kidney | Cytotoxicity (measured IC50 relative to that recorded for Polymyxin B) (HK-2 cells): 23** | Renal toxicity (grade from urinary KIM-1, albumin, cystatin C) [14]: ++++

Colistin
Albumin, urine [1, 16]: 2,353-2,548 μg/24 h | Cystatin C, urine [1, 16]: 1,266-1,678 ng/24 h | KIM-1, urine [1, 16]: 42-89 ng/24 h
